Legend:
[1] = tested on: carnitine palmitoyltransferase (CPT); test: Carnitine palmitoyltransferase (CPT) activity in brown adipose tissues of rats fed CLA; format: in vivo, Sprague-Dawley male rats; settings: 1.0% CLA in diet, 4 weeks
Text: (§1) Sprague-Dawley male rats of four weeks of age were pre-bred, and then divided into two groups (each group consisting of 8 rats), a 1.0% linoleic acid group (a control group) and a 1.0% CLA group. The experimental diet shown in Table 1 and water were then freely fed to these two groups of rats. […] Four weeks after the initiation of feeding, the 8 rats constituting each group were sacrificed, and the organs were taken out.
Further, the activity of carnitine palmitoyltransferase (CPT) as a rate-determining enzyme in β-oxidation of fatty acids was measured in brown adipose tissues.

[2] = Feeding of 1.0% CLA diet to rats for four weeks: growth and weight of organs; format: in vivo, Sprague-Dawley male rats; settings: 1.0% CLA in diet, 4 weeks
Text: as §1

conjugated linoleic acid [CLA]
Activity of carnitine palmitoyltransferase (CPT) in brown adipose tissues, in words, compared with control group [1]: higher | Food intake, in words, compared with 1.0% linoleic acid control group [2]: without affecting | Weight gain, in words, compared with 1.0% linoleic acid control group [2]: without affecting | Weight of adipose tissues around the kidney (white adipose tissues), in words, compared with control group [2]: significantly decreased | Weight of brown adipose tissues in the back, in words, compared with control group [2]: significantly increased | Weight of organs: Brain [2]: 0.38 g/100 g body weight | Weight of organs: Brown adipose tissue [2]: 0.21 g/100 g body weight | Weight of organs: Epididymal adipose tissue [2]: 1.17 g/100 g body weight | Weight of organs: Heart [2]: 0.36 g/100 g body weight | Weight of organs: Kidney [2]: 0.78 g/100 g body weight | Weight of organs: Liver [2]: 4.40 g/100 g body weight | Weight of organs: Lung [2]: 0.40 g/100 g body weight | Weight of organs: Spleen [2]: 0.22 g/100 g body weight | Weight of tissues of liver, kidney, heart, lungs, spleen and brain, in words, compared with control group [2]: no difference | Food intake ([2]; free feeding): 21.0 g/day | Weight gain ([2]; free feeding): 227 g/4 weeks | Weight of organs: Peri-renal adipose tissue ([2]; white adipose tissue): 1.16 g/100 g body weight

— patent US6451336B2, “Method for increasing brown fat, comprising administering conjugated linoleic acid as active ingredient” (Rinoru Oil Mills Co., Ltd., priority 1999, dated 2002)
